Assay results from ChEMBL document CHEMBL3792365, “Dioxol and dihydrodioxin analogs of 2- and 3-phenylacetonitriles as potent anti-cancer agents with nanomolar activity against a variety of human cancer cells” (2016).

Assays:
Format in all cases: functional
NCI-H460 = experiment: Growth inhibition of human NCI-H460 cells at 10 uM after 48 hrs by sulforhodamine B assay; details: NCI-H460, 48 h, values are per cent of control
[1] = Growth inhibition of human SF268 cells at 10 uM after 48 hrs by sulforhodamine B assay; details: SF-268, 48 h, values are per cent of control
SK-MEL-2 = experiment: Growth inhibition of human SK-MEL-2 cells at 10 uM after 48 hrs by sulforhodamine B assay; details: SK-MEL-2, 48 h, values are per cent of control
[2] = Growth inhibition of human HCC2998 cells at 10 uM after 48 hrs by sulforhodamine B assay; details: HCC 2998, 48 h, values are per cent of control
MDA-MB-435 = experiment: Growth inhibition of human MDA-MB-435 cells at 10 uM after 48 hrs by sulforhodamine B assay; details: MDA-MB-435, 48 h, values are per cent of control
[3] = Growth inhibition of human SF539 cells at 10 uM after 48 hrs by sulforhodamine B assay; details: SF-539, 48 h, values are per cent of control
[4] = Growth inhibition of human COLO205 cells at 10 uM after 48 hrs by sulforhodamine B assay; details: COLO 205, 48 h, values are per cent of control
[5] = Growth inhibition of human LOXIMVI cells at 10 uM after 48 hrs by sulforhodamine B assay; details: LOX IMVI, values are per cent of control
[6] = Growth inhibition of human OVCAR8 cells at 10 uM after 48 hrs by sulforhodamine B assay; details: OVCAR-8, 48 h, values are per cent of control
[7] = Growth inhibition of human IGROV1 cells at 10 uM after 48 hrs by sulforhodamine B assay; details: IGROV-1, 48 h, values are per cent of control
SK-MEL-28 = experiment: Growth inhibition of human SK-MEL-28 cells at 10 uM after 48 hrs by sulforhodamine B assay; details: SK-MEL-28, 48 h, values are per cent of control
[8] = Growth inhibition of human OVCAR4 cells at 10 uM after 48 hrs by sulforhodamine B assay; details: OVCAR-4, 48 h, values are per cent of control
[9] = Growth inhibition of human Caki1 cells at 10 uM after 48 hrs by sulforhodamine B assay; details: CAKI-1, 48 h, values are per cent of control
SK-MEL-5 = experiment: Growth inhibition of human SK-MEL-5 cells at 10 uM after 48 hrs by sulforhodamine B assay; details: SK-MEL-5, 48 h, values are per cent of control
[10] = Growth inhibition of human TK10 cells at 10 uM after 48 hrs by sulforhodamine B assay; details: TK-10, 48 h, values are per cent of control
NCI-H322M = experiment: Growth inhibition of human NCI-H322M cells at 10 uM after 48 hrs by sulforhodamine B assay; details: values are per cent of control
A549 = experiment: Growth inhibition of human A549/ATCC cells at 10 uM after 48 hrs by sulforhodamine B assay; details: A549, 48 h, values are per cent of control
U-251 = experiment: Growth inhibition of human U251 cells at 10 uM after 48 hrs by sulforhodamine B assay; details: U-251, 48 h, values are per cent of control
[11] = Growth inhibition of human Hs 578T cells at 10 uM after 48 hrs by sulforhodamine B assay; details: values are per cent of control
T47D = experiment: Growth inhibition of human T47D cells at 10 uM after 48 hrs by sulforhodamine B assay; details: values are per cent of control
MDA-MB-468 = experiment: Growth inhibition of human MDA-MB-468 cells at 10 uM after 48 hrs by sulforhodamine B assay; details: MDA-MB-468, 48 h, values are per cent of control
[12] = Growth inhibition of human NCI-ADR-RES cells at 10 uM after 48 hrs by sulforhodamine B assay; details: values are per cent of control
[13] = Growth inhibition of human HCT116 cells at 10 uM after 48 hrs by sulforhodamine B assay; details: HCT-116, 48 h, values are per cent of control
[14] = Growth inhibition of human HCT15 cells at 10 uM after 48 hrs by sulforhodamine B assay; details: HCT-15, 48 h, values are per cent of control
ACHN = experiment: Growth inhibition of human ACHN cells at 10 uM after 48 hrs by sulforhodamine B assay; details: values are per cent of control
[15] = Growth inhibition of human BT549 cells at 10 uM after 48 hrs by sulforhodamine B assay; details: BT-549, 48 h, values are per cent of control
SR = experiment: Growth inhibition of human SR cells at 10 uM after 48 hrs by sulforhodamine B assay; details: values are per cent of control
[16] = Growth inhibition of human RXF393 cells at 10 uM after 48 hrs by sulforhodamine B assay; details: RXF 393, 48 h, values are per cent of control
NCI-H522 = experiment: Growth inhibition of human NCI-H522 cells at 10 uM after 48 hrs by sulforhodamine B assay; details: NCI-H522, 48 h, values are per cent of control
[17] = Growth inhibition of human DU145 cells at 10 uM after 48 hrs by sulforhodamine B assay; details: DU-145, 48 h, values are per cent of control
SN12C = experiment: Growth inhibition of human SN12C cells at 10 uM after 48 hrs by sulforhodamine B assay; details: values are per cent of control
NCI-H23 = experiment: Growth inhibition of human NCI-H23 cells at 10 uM after 48 hrs by sulforhodamine B assay; details: NCI-H23, 48 h, values are per cent of control
[18] = Growth inhibition of human HOP62 cells at 10 uM after 48 hrs by sulforhodamine B assay; details: HOP-62, 48 h, values are per cent of control
[19] = Growth inhibition of human SF295 cells at 10 uM after 48 hrs by sulforhodamine B assay; details: SF-295, 48 h, values are per cent of control
786-0 = experiment: Growth inhibition of human 786-0 cells at 10 uM after 48 hrs by sulforhodamine B assay; details: 786-0, 48 h, values are per cent of control
[20] = Growth inhibition of human UACC62 cells at 10 uM after 48 hrs by sulforhodamine B assay; details: UACC-62, 48 h, values are per cent of control
M14 = experiment: Growth inhibition of human M14 cells at 10 uM after 48 hrs by sulforhodamine B assay; details: M14, 48 h, values are per cent of control
[21] = Growth inhibition of human SNB19 cells at 10 uM after 48 hrs by sulforhodamine B assay; details: SNB-19, 48 h, values are per cent of control
NCI-H226 = experiment: Growth inhibition of human NCI-H226 cells at 10 uM after 48 hrs by sulforhodamine B assay; details: NCI-H226, 48 h, values are per cent of control
[22] = Growth inhibition of human SW620 cells at 10 uM after 48 hrs by sulforhodamine B assay; details: SW-620, 48 h, values are per cent of control

SMILES	growth, % of control at 10 µM (NCI-H460)	growth, % of control at 10 µM [1]	growth, % of control at 10 µM (SK-MEL-2)	growth, % of control at 10 µM [2]	growth, % of control at 10 µM (MDA-MB-435)	growth, % of control at 10 µM [3]	growth, % of control at 10 µM [4]	growth, % of control at 10 µM [5]	growth, % of control at 10 µM [6]	growth, % of control at 10 µM [7]	growth, % of control at 10 µM (SK-MEL-28)	growth, % of control at 10 µM [8]	growth, % of control at 10 µM [9]	growth, % of control at 10 µM (SK-MEL-5)	growth, % of control at 10 µM [10]	growth, % of control at 10 µM (NCI-H322M)	growth, % of control at 10 µM (A549)	growth, % of control at 10 µM (U-251)	growth, % of control at 10 µM [11]	growth, % of control at 10 µM (T47D)	also measured
N#C/C(=C\c1cc(F)cc(F)c1)c1ccc2c(c1)OCO2	103%	101%	119%	94.6%	98.2%	97.8%	105%	105%	96.7%	121%	115%	107%	94.2%	105%	119%	121%	100%	108%	122%	102%	growth, % of control at 10 µM (MDA-MB-468): 102%; growth, % of control at 10 µM [12]: 106%; growth, % of control at 10 µM [13]: 97.1%; growth, % of control at 10 µM [14]: 99.4%; growth, % of control at 10 µM (ACHN): 109%; growth, % of control at 10 µM [15]: 94.5%; growth, % of control at 10 µM (SR): 84.6%; growth, % of control at 10 µM [16]: 98.5%; growth, % of control at 10 µM (NCI-H522): 132%; growth, % of control at 10 µM [17]: 109%; growth, % of control at 10 µM (SN12C): 106%; growth, % of control at 10 µM (NCI-H23): 103%; growth, % of control at 10 µM [18]: 91.9%; growth, % of control at 10 µM [19]: 98.5%; growth, % of control at 10 µM (786-0): 94.6%; growth, % of control at 10 µM [20]: 106%; growth, % of control at 10 µM (M14): 99%; growth, % of control at 10 µM [21]: 110%; growth, % of control at 10 µM (NCI-H226): 102%; growth, % of control at 10 µM [22]: 105%
COc1ccc(/C=C(\C#N)c2ccc3c(c2)OCO3)cc1OC	106%	99.5%	102%	106%	96.1%	103%	106%	101%	104%	96.9%	116%	110%	102%	103%	96.5%	96.8%	96.6%	102%	114%	88.7%	growth, % of control at 10 µM (MDA-MB-468): 104%; growth, % of control at 10 µM [12]: 102%; growth, % of control at 10 µM [13]: 105%; growth, % of control at 10 µM [14]: 99.8%; growth, % of control at 10 µM (ACHN): 111%; growth, % of control at 10 µM [15]: 91.8%; growth, % of control at 10 µM (SR): 83%; growth, % of control at 10 µM [16]: 111%; growth, % of control at 10 µM (NCI-H522): 94.5%; growth, % of control at 10 µM [17]: 104%; growth, % of control at 10 µM (SN12C): 103%; growth, % of control at 10 µM (NCI-H23): 97.1%; growth, % of control at 10 µM [18]: 97.6%; growth, % of control at 10 µM [19]: 105%; growth, % of control at 10 µM (786-0): 103%; growth, % of control at 10 µM [20]: 114%; growth, % of control at 10 µM (M14): 106%; growth, % of control at 10 µM [21]: 105%; growth, % of control at 10 µM (NCI-H226): 114%; growth, % of control at 10 µM [22]: 107%
N#C/C(=C\c1ccc2c(c1)OCO2)c1ccc2c(c1)OCO2	83.6%	81.2%	63.5%	72.3%	-5.7%	79.4%	59.8%	65.1%	83.8%	66.1%	88.5%	89.7%	66.8%	75.9%	91%	106%	59.5%	77.2%	89.7%	67.7%	growth, % of control at 10 µM (MDA-MB-468): 54.9%; growth, % of control at 10 µM [12]: 41%; growth, % of control at 10 µM [13]: 57.5%; growth, % of control at 10 µM [14]: 43.9%; growth, % of control at 10 µM (ACHN): 96.2%; growth, % of control at 10 µM [15]: 49.6%; growth, % of control at 10 µM (SR): 26.2%; growth, % of control at 10 µM [16]: 94.7%; growth, % of control at 10 µM (NCI-H522): 76.4%; growth, % of control at 10 µM [17]: 92.5%; growth, % of control at 10 µM (SN12C): 90.7%; growth, % of control at 10 µM (NCI-H23): 83.2%; growth, % of control at 10 µM [18]: 76.7%; growth, % of control at 10 µM [19]: 76.5%; growth, % of control at 10 µM (786-0): 90%; growth, % of control at 10 µM [20]: 69.4%; growth, % of control at 10 µM (M14): 50.8%; growth, % of control at 10 µM [21]: 95.9%; growth, % of control at 10 µM (NCI-H226): 94.9%; growth, % of control at 10 µM [22]: 42.9%
N#C/C(=C\c1c(Cl)cccc1Cl)c1ccc2c(c1)OCO2	102%	102%	90.6%	89.9%	63.5%	97.9%	99.6%	98.9%	92.6%	85.6%	104%	79.9%	83.2%	93.5%	81%	102%	79.9%	89%	101%	83.8%	growth, % of control at 10 µM (MDA-MB-468): 84.9%; growth, % of control at 10 µM [12]: 103%; growth, % of control at 10 µM [13]: 89.7%; growth, % of control at 10 µM [14]: 92.6%; growth, % of control at 10 µM (ACHN): 103%; growth, % of control at 10 µM [15]: 100%; growth, % of control at 10 µM (SR): 77%; growth, % of control at 10 µM [16]: 96.1%; growth, % of control at 10 µM (NCI-H522): 65.4%; growth, % of control at 10 µM [17]: 99.3%; growth, % of control at 10 µM (SN12C): 95.9%; growth, % of control at 10 µM (NCI-H23): 93.7%; growth, % of control at 10 µM [18]: 90.6%; growth, % of control at 10 µM [19]: 95.6%; growth, % of control at 10 µM (786-0): 95.6%; growth, % of control at 10 µM [20]: 86.4%; growth, % of control at 10 µM (M14): 89.7%; growth, % of control at 10 µM [21]: 106%; growth, % of control at 10 µM (NCI-H226): 111%; growth, % of control at 10 µM [22]: 99.9%
